Experimental findings from ChEMBL document CHEMBL4017474, “A calcineurin antifungal strategy with analogs of FK506” (Bioorg Med Chem Lett, 2017) are described below.

The test system of data set [1] is PBMC. The data set is described as follows: Permeability across human PBMC at 1 uM. The class given is ADME, cell-based.
The target in data set [2] is T1, Peptidyl-prolyl cis-trans isomerase FKBP1A (Homo sapiens, UniProt P62942). Description: Antagonist activity at recombinant human N-terminal His6-tagged FKBP12 expressed in Escherichia coli assessed as inhibition of FK506 mediated FKBP12 binding to calcineurin using […] pretreated for 1 hr followed by substrate addition measured after 1 hr by biomol green dye based spectrophotometric method.

Data set [3] can be described thus: Antagonist activity at Aspergillus fumigatus FKBP12 measured after 30 mins by fluorescein labelled SLF tracer based fluorescence polarization assay.
Data set [4] concerns the target T1, Peptidyl-prolyl cis-trans isomerase FKBP1A. Description: Antagonist activity at recombinant human N-terminal His6-tagged FKBP12 expressed in Escherichia coli assessed as inhibition of FKBP12 binding to calcineurin at […] using […] pretreated for 1 hr followed by substrate addition measured after 1 hr by biomol green dye based spectrophotometric method.

The test system of data set [5] is PBMC. Description: Reversal of FK506-induced inhibition of cell proliferation in concanavalin A stimulated human PBMC at 1 uM measured after 72 hrs by CellTiter-Glo assay relative to control. Type of data set: functional. Further details: scale not given: the % may be the effect or the level left.
Another data set has as its system Vero 76. The data set is described as follows: Cytotoxicity against African green monkey Vero 76 cells. The class given is cell-based. To be noted: Chlorocebus sabaeus.
In data set [6] the test system is Aspergillus fumigatus. Description: Antifungal activity against Aspergillus fumigatus assessed as spore germination at 12.5 ug/ml measured after 48 hrs in presence of FK506 by broth dilution method relative to control. The class given is functional.
The next data set has as its system Jurkat. The data set is described as follows: Immunosuppressive activity in PMA/ionomycin stimulated human Jurkat T cells assessed as suppression of IL2 production pretreated for 15 to 30 mins followed by PMA/ionomycin addition measured after 18 to 20 hrs by ELISA. The class given is cell-based.
In data set [7] the target is T1, Peptidyl-prolyl cis-trans isomerase FKBP1A. The data set is described as follows: Antagonist activity at human FKBP12 measured after 30 mins by fluorescein labelled SLF tracer based fluorescence polarization assay.
The subject of a further data set is HepG2. The data set is described as follows: Cytotoxicity against human HepG2 cells. The class given is cell-based.
For data set [8], the system named is PBMC. Description: Antiproliferative activity against concanavalin A stimulated human PBMC at 1 to 2 ug/ml measured after 72 hrs by CellTiter-Glo assay. Type of data set: cell-based.
The subject of data set [9] is Aspergillus fumigatus. Description: Antifungal activity against Aspergillus fumigatus up to 25 ug/ml measured after 48 hrs by broth dilution method. The class given is functional.
Data set [10] relates to Aspergillus fumigatus. Description: Permeability across Aspergillus fumigatus at 12.5 ug/ml relative to human PBMC. Type of data set: ADME.
Data set [11] concerns Aspergillus fumigatus. Description: Antifungal activity against Aspergillus fumigatus assessed as spore germination at 6.25 to 25 ug/ml measured after 48 hrs in presence of FK506 by broth dilution method. The class given is functional.
Data set [12] deals with PBMC. The data set is described as follows: Reversal of FK506-induced inhibition of cell proliferation in concanavalin A stimulated human PBMC at 0.1 uM measured after 72 hrs by CellTiter-Glo assay. The class given is functional, cell-based.
A short description of data set [13]: AUClast in mouse at 3 mg/kg, iv. The class given is ADME, organism-based. Further details: dose 3 mg/kg, time 0 - last, route intravenous. To be noted: in vivo.
Data set [14] in a line: Terminal half-life in mouse at 3 mg/kg, iv. The class given is ADME, organism-based. To be noted: in vivo, read-out: beta t1/2 (converted).
The nature of data set [15]: Volume of distribution at steady state in mouse at 3 mg/kg, iv. To be noted: in vivo, read-out: Vdss. The class given is ADME, organism-based.
Data set [16] is described as follows: Clearance in mouse at 3 mg/kg, iv. Type of data set: ADME, organism-based. To be noted: in vivo.
Data set [17] in a line: Tmax in mouse at 10 mg/kg, po. The class given is ADME, organism-based. To be noted: in vivo.
Data set [18] is described as follows: AUClast in mouse at 10 mg/kg, po. Also on record: dose 10 mg/kg, time 0 - last, route oral. Type of data set: ADME, organism-based. To be noted: in vivo.
A short description of data set [19]: Cmax in mouse at 10 mg/kg, po. Type of data set: ADME, organism-based. Also on record: dose 10 mg/kg, route oral. To be noted: in vivo.
Another data set has as its system Cryptococcus neoformans. The data set is described as follows: Antifungal activity against Cryptococcus neoformans by broth macrodilution method. Type of data set: functional.
Data set [20] has as its system Aspergillus fumigatus. The data set is described as follows: Antifungal activity against Aspergillus fumigatus by broth macrodilution method. The class given is functional.

Converted amounts (≈) assume the structure as drawn. The source made the active and inactive calls. The calls are words filed in the database; no cut-off is given here.

T1 sequence (P62942 whole entry): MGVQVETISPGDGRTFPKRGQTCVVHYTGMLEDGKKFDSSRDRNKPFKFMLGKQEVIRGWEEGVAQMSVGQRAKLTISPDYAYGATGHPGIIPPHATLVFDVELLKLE

In the data set on PBMC [1], `CO[C@H]1C[C@@H](C)C/C(C)=C/[C@@H](CC(=O)N2CCN(C)CC2)C(=O)C[C@H](O)[C@@H](C)[C@@H](/C(C)=C/[C@@H]2CC[C@@H](O)[C@H](OC)C2)OC(=O)[C@@H]2CCCCN2C(=O)C(=O)[C@]2(O)O[C@H]1[C@@H](OC)C[C@H]2C` came in with a permeability of 100%. Further, the half-inhibitory concentration (IC50) was 1100 nM in data set [2]; 16.8 nM in data set [3]; greater than 100000 nM with Vero 76; greater than 10000 nM in the data set on Jurkat; 12.6 nM in data set [7]; greater than 100000 nM in the data set with HepG2. The inhibition result in data set [4] is “inactive”. Moreover, the Activity was 102.8% in the data set on PBMC [5], 43.1% in the data set on Aspergillus fumigatus [6] and “Non-Toxic” with PBMC [8]. In addition, the result in the data set with Aspergillus fumigatus [9] was inactive.
As to `CO[C@H]1C[C@@H](C)C/C(C)=C/[C@@H](CCCC(=O)N2CCC(CO)CC2)C(=O)C[C@H](O)[C@@H](C)[C@@H](/C(C)=C/[C@@H]2CC[C@@H](OCCO)[C@H](OC)C2)OC(=O)[C@@H]2CCCCN2C(=O)C(=O)[C@]2(O)O[C@H]1[C@@H](OC)C[C@H]2C`, in [4], the inhibition result was “inactive”. Besides, the Activity with PBMC [5] is 81.7%; in the data set with Aspergillus fumigatus [6] it was 24%; in the data set on PBMC [8], “Non-Toxic”. In addition, the IC50 is greater than 100000 nM in the data set on Vero 76, greater than 10000 nM in the data set on Jurkat, 23.6 nM in data set [7] and greater than 100000 nM with HepG2. In addition, in the data set with Aspergillus fumigatus [10], the permeability amounted to 75%. The result in the data set with Aspergillus fumigatus [9] was inactive.
Consider `CC[C@@H]1/C=C(\C)C(O)[C@H](C)C[C@H](OC)[C@H]2O[C@@](O)(C(=O)C(=O)N3CCCC[C@H]3C(=O)O[C@H](/C(C)=C/[C@@H]3CC[C@@H](O)[C@H](OC)C3)[C@H](C)[C@@H](O)CC1=O)[C@H](C)C[C@@H]2OC` (some centres not stated), for which the outcome with Aspergillus fumigatus [11], in the data set on PBMC [12] and with Aspergillus fumigatus [9] was inactive. The AUC(0-t) was determined as 787 ng·h/mL in data set [13] and 208 ng·h/mL in data set [18]. Further, the half-life in [14] is 66.6 min. Moreover, in data set [15], the Vd worked out at 2.58 L/kg. The IC50 is 1310 nM in data set [2]; 18.5 nM in [3]; greater than 100000 nM in the data set with Vero 76; greater than 10000 nM in the data set on Jurkat; 6.8 nM in data set [7]; greater than 100000 nM with HepG2. This compound also gave a clearance in data set [16] of 60.8 mL/min/kg. In addition, the Tmax in data set [17] is 15 min. The inhibition entry in data set [4] is “inactive”. Moreover, the figures for the Activity with PBMC [5], in the data set with Aspergillus fumigatus [6] and in the data set with PBMC [8] were 78.7%, 83 - 86.8% and “Non-Toxic”, respectively. Moreover, in [19], the peak level (Cmax) was 184 ng/mL.
In the case of `CO[C@H]1C[C@@H](C)C/C(C)=C/[C@@H](CCCSCCO)C(=O)C[C@H](O)[C@@H](C)[C@@H](/C(C)=C/[C@@H]2CC[C@@H](O)[C@H](OC)C2)OC(=O)[C@@H]2CCCCN2C(=O)C(=O)[C@]2(O)O[C@H]1[C@@H](OC)C[C@H]2C`, the AUC(0-t) worked out at 2110 ng·h/mL in data set [13] and 2710 ng·h/mL in data set [18]. Besides, the half-life in data set [14] was 47.6 min. Also, the Vd in data set [15] was 1.17 L/kg. Further, in the data set on PBMC [1], the permeability worked out at 100%. In [16], this compound gave a clearance of 22.8 mL/min/kg. The time to peak (Tmax) in data set [17] was 30 min. Moreover, the inhibition result in [4] is “inactive”. Moreover, the results for the Activity in the data set with PBMC [5], with Aspergillus fumigatus [6] and in the data set on PBMC [8] were 96.5%, 37.5% and “Non-Toxic”, respectively. The IC50 in the data set on Vero 76 was greater than 100000 nM; with Jurkat, greater than 10000 nM; in [7], 27 nM; in the data set on HepG2, greater than 100000 nM. Besides, in [19], the maximum concentration (Cmax) was 1640 ng/mL. For the same compound, the result with Aspergillus fumigatus [9] was inactive.
In data set [13], `C=CC[C@@H]1/C=C(\C)C[C@H](C)C[C@H](OC)[C@H]2O[C@@](O)(C(=O)C(=O)N3CCCC[C@H]3C(=O)O[C@H](/C(C)=C/[C@@H]3CC[C@@H](O)[C@H](OC)C3)[C@H](C)[C@@H](O)CC1=O)[C@H](C)C[C@@H]2OC` [TACROLIMUS ANHYDROUS] gave an area under the curve AUC(0-t) of 1620 ng·h/mL. Moreover, the half-life in [14] was 57.1 min. Moreover, the Vd in data set [15] was 1.8 L/kg. Also, the clearance in data set [16] was 29.5 mL/min/kg. Besides, the IC50 in data set [3] is 18.4 nM; in the data set with Vero 76 it was greater than 100000 nM; in the data set with Jurkat it was 360 nM; with HepG2 it was greater than 100000 nM. Further, the minimum inhibitory concentration (MIC) was found to be 0.01 µg/mL (≈ 0.0124 µM) in the data set on Cryptococcus neoformans and 0.025 µg/mL (≈ 0.0311 µM) in the data set with Aspergillus fumigatus [20]. Further, the inhibition entry in [4] is “inactive”.
Take `CO[C@H]1C[C@@H](C)C/C(C)=C/[C@@H](CC(=O)N2CCCC2)C(=O)C[C@H](O)[C@@H](C)[C@@H](/C(C)=C/[C@@H]2CC[C@@H](OC(=O)N3CC(O)C3)[C@H](OC)C2)OC(=O)[C@@H]2CCCCN2C(=O)C(=O)[C@]2(O)O[C@H]1[C@@H](OC)C[C@H]2C`: the AUC(0-t) in [13] was found to be 2780 ng·h/mL; in data set [18], 1860 ng·h/mL. The half-life in data set [14] is 81.6 min. Further, in [15], the Vd was determined as 1.35 L/kg. Further, the clearance in data set [16] was 16.1 mL/min/kg. Further, the Tmax in data set [17] was determined as 30 min. The inhibition result in [4] is “inactive”. Also, the Activity with PBMC [5] is reported as 63%; with Aspergillus fumigatus [6], 22%; with PBMC [8], “Non-Toxic”. Besides, the IC50 in the data set with Vero 76 is greater than 100000 nM; with Jurkat it was greater than 10000 nM; in data set [7] it was 22.6 nM; in the data set with HepG2, greater than 100000 nM. The compound further returned a permeability in the data set with Aspergillus fumigatus [10] of 75%. In addition, the concentration in data set [19] peaked (Cmax) at 814 ng/mL. The outcome in the data set with Aspergillus fumigatus [9] was inactive.
